Experimental findings from US6918445B2, “Methods and compositions for treating subterranean zones using environmentally safe polymer breakers” (Halliburton Energy Services, Inc., priority 2003, dated 2005) are described below.

A short description of this data set: Sodium perborate tetrahydrate solubility tests in fresh water. As to conditions: density 8.33 pounds per gallon, 75° F., with mixing; for Amount Dissolved (solubility of sodium perborate tetrahydrate in water): 10% by weight of water was a pass/fail target, not the maximum solubility. The class given is physicochemical. As to the method:
Sodium perborate tetrahydrate solubility tests in fresh water having a density of 8.33 pounds per gallon were conducted. […] The sodium borate tetrahydrate-complex or ester forming compound mixtures all contained a molar ratio of sodium perborate tetrahydrate to the complex or ester forming compound of 1:2, and the mixtures were added to the water in amounts whereby the sodium perborate tetrahydrate was present in an amount of 10% by weight of the water.

Structures are written as SMILES.

Regarding `O.O.O.O.[Na+].[O-]B1OO1` [Sodium Perborate Tetrahydrate], the “Amount Dissolved (solubility of sodium perborate tetrahydrate in water)” value is given as 2.5% by weight of water. Where the note is “listed as sodium perborate tetrahydrate”, the “Amount Dissolved (solubility of sodium perborate tetrahydrate in water)” value is listed as 2.5 % by weight of water. In addition, the “Time Required” value (time to dissolve the stated amount) is on record as under 15 min.
